According to ChEMBL document CHEMBL6121046, “Discovery of Novel Hydrazide-Based HDAC3 Inhibitors as Epigenetic Immunomodulators for Cancer Immunotherapy” (J Med Chem, 2025):
Activity calls are given as the source filed them. The calls are words filed in the database; no cut-off is given here.

Key:
MC-38 [1] = experiment: Induction of apoptosis in mouse MC38 cells assessed as viable cells at 2 uM measured after 48 hrs by FITC/PI staining based flow cytometry (reference value: 82.07%); format: functional; settings: read-out: Activity
MC-38 [2] = experiment: Induction of apoptosis in mouse MC38 cells assessed as early apoptotic cells at 8 uM measured after 48 hrs by FITC/PI staining based flow cytometry (Rvb =12.27%); format: functional
MC-38 [3] = experiment: Induction of apoptosis in mouse MC38 cells assessed as viable cells at 8 uM measured after 48 hrs by FITC/PI staining based flow cytometry (reference value: 82.07%); format: functional; settings: read-out: Activity
MC-38 [4] = experiment: Effect on acetylated SMC3 in mouse MC38 cells at 0.1 to 2 uM measured after 24 hrs incubation by Western blot analysis; format: functional, cell-based; settings: dose 0.1-2 µM
B16-F10 (Mus musculus) = experiment: Antiproliferative activity against mouse B16-F10 cells measured after 48 hrs incubation by MTT assay relative to control; settings: B16-F10, 48 h
HCT-116 = experiment: Antiproliferative activity against human HCT-116 cells measured after 48 hrs incubation by MTT assay relative to control; format: functional, cell-based; settings: HCT-116, 48 h
MC-38 [5] = experiment: Induction of apoptosis in mouse MC38 cells assessed as viable cells at 1 uM measured after 48 hrs by FITC/PI staining based flow cytometry (reference value: 82.07%); format: functional; settings: read-out: Activity
MC-38 [6] = experiment: Induction of apoptosis in mouse MC38 cells assessed as late apoptotic cells at 1 uM measured after 48 hrs by FITC/PI staining based flow cytometry (reference value: 5.07%); format: functional
Histone deacetylase 3 = Histone deacetylase 3 (Homo sapiens, UniProt O15379); experiment: Inhibition of human recombinant HDAC3 pre-incubated with compounds for 10 mins measured followed by 60 mins of substrate addition
Chain of Histone deacetylase 3 (O15379 whole entry): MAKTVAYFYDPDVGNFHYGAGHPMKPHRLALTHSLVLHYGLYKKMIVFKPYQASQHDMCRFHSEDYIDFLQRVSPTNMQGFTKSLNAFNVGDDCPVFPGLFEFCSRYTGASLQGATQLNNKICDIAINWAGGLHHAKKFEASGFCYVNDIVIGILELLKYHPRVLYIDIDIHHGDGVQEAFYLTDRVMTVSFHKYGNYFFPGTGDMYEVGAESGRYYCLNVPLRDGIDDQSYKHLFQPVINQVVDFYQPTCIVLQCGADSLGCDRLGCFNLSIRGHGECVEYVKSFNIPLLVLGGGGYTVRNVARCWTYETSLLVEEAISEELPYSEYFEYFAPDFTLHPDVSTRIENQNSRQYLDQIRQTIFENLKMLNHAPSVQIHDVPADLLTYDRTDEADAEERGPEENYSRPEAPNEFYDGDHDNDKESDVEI

MC-38 [7] = experiment: Effect on acetylated alpha-tubulin in mouse MC38 cells at 0.1 to 2 uM measured after 24 hrs incubation by Western blot analysis; format: functional, cell-based; settings: dose 0.1-2 µM
MC-38 [8] = experiment: Induction of apoptosis in mouse MC38 cells assessed as late apoptotic cells at 2 uM measured after 48 hrs by FITC/PI staining based flow cytometry (reference value: 5.07%); format: functional
[9] = biological target: T1, Protein deacetylase HDAC6 (Homo sapiens, UniProt Q9UBN7); experiment: Inhibition of human recombinant HDAC6 pre-incubated with compounds for 10 mins measured followed by 60 mins of substrate addition
T1 sequence (Q9UBN7 whole entry): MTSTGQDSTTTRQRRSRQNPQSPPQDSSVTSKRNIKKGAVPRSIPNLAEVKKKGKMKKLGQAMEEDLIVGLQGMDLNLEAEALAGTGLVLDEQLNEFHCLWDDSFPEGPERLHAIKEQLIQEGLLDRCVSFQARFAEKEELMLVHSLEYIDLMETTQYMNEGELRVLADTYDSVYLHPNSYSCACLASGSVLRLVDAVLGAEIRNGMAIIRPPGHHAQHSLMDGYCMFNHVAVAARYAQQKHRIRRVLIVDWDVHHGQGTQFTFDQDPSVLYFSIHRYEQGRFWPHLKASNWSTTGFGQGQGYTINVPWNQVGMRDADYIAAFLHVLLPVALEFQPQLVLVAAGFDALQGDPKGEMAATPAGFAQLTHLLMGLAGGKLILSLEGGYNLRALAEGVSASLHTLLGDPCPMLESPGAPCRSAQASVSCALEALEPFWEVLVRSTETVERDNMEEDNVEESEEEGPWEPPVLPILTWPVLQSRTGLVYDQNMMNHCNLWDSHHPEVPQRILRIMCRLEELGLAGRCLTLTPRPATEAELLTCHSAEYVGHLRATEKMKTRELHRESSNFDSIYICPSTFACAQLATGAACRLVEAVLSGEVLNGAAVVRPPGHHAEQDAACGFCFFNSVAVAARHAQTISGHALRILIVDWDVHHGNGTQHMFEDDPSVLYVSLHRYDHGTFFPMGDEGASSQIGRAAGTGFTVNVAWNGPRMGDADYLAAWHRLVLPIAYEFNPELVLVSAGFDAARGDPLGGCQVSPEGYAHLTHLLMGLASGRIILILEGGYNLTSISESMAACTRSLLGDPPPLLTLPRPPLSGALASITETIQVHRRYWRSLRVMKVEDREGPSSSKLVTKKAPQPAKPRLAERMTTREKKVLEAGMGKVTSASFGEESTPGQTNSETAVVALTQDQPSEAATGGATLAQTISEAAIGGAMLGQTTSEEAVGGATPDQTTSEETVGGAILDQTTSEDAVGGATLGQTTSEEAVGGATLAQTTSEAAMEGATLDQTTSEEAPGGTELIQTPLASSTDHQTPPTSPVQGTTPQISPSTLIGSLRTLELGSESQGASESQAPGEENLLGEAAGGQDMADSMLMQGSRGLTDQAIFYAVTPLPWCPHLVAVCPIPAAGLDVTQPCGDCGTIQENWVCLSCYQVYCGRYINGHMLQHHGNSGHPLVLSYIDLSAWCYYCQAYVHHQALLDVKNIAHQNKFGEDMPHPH

MC-38 [10] = experiment: Induction of apoptosis in mouse MC38 cells assessed as necrotic cells at 1 uM measured after 48 hrs by FITC/PI staining based flow cytometry (reference value: 0.56%); format: functional
HeLa = experiment: Antiproliferative activity against human HeLa cells measured after 48 hrs incubation by MTT assay relative to control; format: functional, cell-based
MC-38 [11] = experiment: Increase in acetylated H3 in mouse MC38 cells at 0.1 to 2 uM measured after 24 hrs incubation by Western blot analysis; format: functional, cell-based; settings: dose 0.1-2 µM
MC-38 [12] = experiment: Induction of apoptosis in mouse MC38 cells assessed as necrotic cells at 2 uM measured after 48 hrs by FITC/PI staining based flow cytometry (reference value: 0.56%); format: functional
MC-38 [13] = experiment: Cell cycle arrest in mouse MC38 cells assessed as increase in accumulation of cells at G2/M phase measured after 48 hrs by flow cytometry; format: functional, cell-based; settings: dose 1-8 µM

Row | Structure (SMILES) | viability at 2 µM (MC-38 [1]) | Activity (MC-38 [2]) | viability at 8 µM (MC-38 [3]) | Activity (MC-38 [4]) | IC50 (B16-F10 (Mus musculus)) | IC50 (HCT-116) | viability at 1 µM (MC-38 [5]) | Activity (MC-38 [6]) | IC50 (Histone deacetylase 3) | Activity (MC-38 [7]) | Activity (MC-38 [8]) | IC50 [9] | Activity (MC-38 [10]) | IC50 (HeLa) | Activity (MC-38 [11]) | Activity (MC-38 [12]) | Activity (MC-38 [13])
1 | CCCNNC(=O)c1ccc(CNC(=O)c2cnc(-c3cccc4ccccc34)[nH]2)cc1 | 31.3% | 22.9% | 22.2% | inactive | 2470 nM | 230 nM | 50.7% | 30.57% | 61 nM | inactive | 41.1% | 9680 nM | 2.9% | 1310 nM | Active | 9.01% | Active
2 | CCCNNC(=O)c1ccc(CNC(=O)c2cnc(-c3ccc4occc4c3)[nH]2)cc1 | 37.9% | 19.83% | 16.4% | inactive | 2690 nM | 100 nM | 49.3% | 35% | 53 nM | inactive | 28.73% | > 10000 nM | 3.72% | 2240 nM | Active | 2.15% | Active
